Assay results from patent US20230278995A1, “1,3,4-OXADIAZOLE DERIVATIVE COMPOUNDS AS HISTONE DEACETYLASE 6 INHIBITOR, AND THE PHARMACEUTICAL COMPOSITION COMPRISING THE SAME” (CHONG KUN DANG PHARMACEUTICAL CORP., priority 2020, published 2023).

How the values were obtained:
human recombinant HDAC1 = molecular target: T1, human recombinant HDAC1 (Homo sapiens, UniProt Q13547); assay: HDAC enzyme activity inhibition assay (HDAC Fluorimetric Drug Discovery Kit), HDAC1; type: biochemical; details: human recombinant HDAC1, Fluor de Lys-SIRT1 substrate, 30° C. 60 minutes
T1 construct: purchased Enzo Life Sciences, Inc. BML-SE456
Protocol: (§1) For the HDAC1 enzyme activity test, human recombinant HDAC1 (BML-SE456) was used as an enzyme source and Fluor de Lys©-SIRT1 (BNL-K1177) was used as a substrate. After dispensing 5-fold diluted compounds into a 96-well plate, 0.3 μg of enzyme and 10 μM substrate were added to each well of the plate and allowed to react at 30° C. for 60 minutes. Next, Fluor de Lys© Developer II (BML-K1176) was added and reacted for 30 minutes to complete the reaction, and then the fluorescence values (Ex 360, Em 460) were measured using a multi-plate reader (Flexstation 3, Molecular Device). The HDAC6 enzymes were tested using human recombinant HDAC6 (382180) from Calbiochem Inc., according to the same protocol as the HDAC1 enzyme activity test method. With respect to the final result values, respective IC50 values were calculated using GraphPad Prism 4.0 program (Table 2).

human recombinant HDAC6 = molecular target: T2, human recombinant HDAC6 (Homo sapiens, UniProt Q9UBN7); assay: HDAC enzyme activity inhibition assay (HDAC Fluorimetric Drug Discovery Kit), HDAC6; type: biochemical; details: for HDAC6 selectivity (fold): HDAC1 vs HDAC6; for IC50: human recombinant HDAC6, same protocol as HDAC1
T2 construct: purchased Calbiochem Inc. 382180
T2 sequence (Q9UBN7 1-1215): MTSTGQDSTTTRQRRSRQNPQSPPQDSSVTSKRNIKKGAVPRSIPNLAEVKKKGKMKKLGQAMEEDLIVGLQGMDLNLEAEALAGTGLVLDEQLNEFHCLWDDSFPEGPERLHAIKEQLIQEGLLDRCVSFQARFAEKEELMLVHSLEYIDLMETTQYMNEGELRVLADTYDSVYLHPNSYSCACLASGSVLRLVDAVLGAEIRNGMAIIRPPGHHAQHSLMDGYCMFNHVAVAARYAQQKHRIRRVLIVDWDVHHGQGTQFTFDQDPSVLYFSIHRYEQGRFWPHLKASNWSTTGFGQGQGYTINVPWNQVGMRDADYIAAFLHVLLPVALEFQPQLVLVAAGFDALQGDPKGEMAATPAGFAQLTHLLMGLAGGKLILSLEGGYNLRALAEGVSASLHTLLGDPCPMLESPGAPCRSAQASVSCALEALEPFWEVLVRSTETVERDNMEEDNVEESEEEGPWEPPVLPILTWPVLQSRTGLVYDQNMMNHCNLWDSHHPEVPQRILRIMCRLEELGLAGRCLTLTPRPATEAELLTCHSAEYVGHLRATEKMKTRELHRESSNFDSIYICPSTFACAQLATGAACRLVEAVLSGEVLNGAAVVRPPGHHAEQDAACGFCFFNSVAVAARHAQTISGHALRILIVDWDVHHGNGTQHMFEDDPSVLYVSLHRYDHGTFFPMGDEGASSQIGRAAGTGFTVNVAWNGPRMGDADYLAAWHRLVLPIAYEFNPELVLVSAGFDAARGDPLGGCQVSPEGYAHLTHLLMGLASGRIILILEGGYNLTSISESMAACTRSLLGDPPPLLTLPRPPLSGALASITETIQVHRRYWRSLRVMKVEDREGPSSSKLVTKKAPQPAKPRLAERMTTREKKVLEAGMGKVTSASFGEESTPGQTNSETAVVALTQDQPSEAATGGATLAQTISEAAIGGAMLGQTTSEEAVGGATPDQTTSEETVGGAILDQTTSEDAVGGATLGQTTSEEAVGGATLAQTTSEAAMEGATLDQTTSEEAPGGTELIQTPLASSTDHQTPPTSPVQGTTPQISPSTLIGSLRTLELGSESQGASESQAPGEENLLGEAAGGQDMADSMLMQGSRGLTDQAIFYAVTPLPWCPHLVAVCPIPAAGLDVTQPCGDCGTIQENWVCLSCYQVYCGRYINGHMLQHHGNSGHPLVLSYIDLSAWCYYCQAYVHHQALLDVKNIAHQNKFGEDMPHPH
Protocol: as §1

T1 sequence (Q13547 whole entry): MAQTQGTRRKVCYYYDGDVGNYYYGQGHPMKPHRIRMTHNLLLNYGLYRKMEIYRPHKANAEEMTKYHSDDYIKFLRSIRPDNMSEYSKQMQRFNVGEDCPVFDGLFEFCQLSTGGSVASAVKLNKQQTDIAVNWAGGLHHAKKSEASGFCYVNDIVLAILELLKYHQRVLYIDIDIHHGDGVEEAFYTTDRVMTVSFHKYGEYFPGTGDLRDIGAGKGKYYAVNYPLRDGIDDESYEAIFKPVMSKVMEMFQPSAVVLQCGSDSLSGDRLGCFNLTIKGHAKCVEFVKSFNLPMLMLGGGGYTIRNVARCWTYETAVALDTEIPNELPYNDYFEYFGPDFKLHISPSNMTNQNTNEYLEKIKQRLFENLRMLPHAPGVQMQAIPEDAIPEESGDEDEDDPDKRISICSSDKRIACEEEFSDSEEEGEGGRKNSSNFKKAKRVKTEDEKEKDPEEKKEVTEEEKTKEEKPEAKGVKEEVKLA

| SMILES | IC50 (human recombinant HDAC1) | HDAC6 selectivity (fold) (human recombinant HDAC6) | IC50 (human recombinant HDAC6) |
| --- | --- | --- | --- |
| CCN1CCC(F)(C(=O)N(Cc2ccc(-c3nnc(C(F)F)o3)cc2F)c2ccccc2)CC1 [Compound 2867, N-(4-(5-(difluoromethyl)-1,3,4-oxadiazol-2-yl)-2-fluorobenzyl)-1-ethyl-4-fluoro-N-phenylpiperidine-4-carboxamide] | > 20 µM | 97 fold | 204 nM |
| CC(C)CN1CCC(N2CC(F)(C(=O)N(Cc3ccc(-c4nnc(C(F)F)o4)cn3)c3cccc(F)c3)C2)CC1 [Compound 3403, N-((5-(5-(difluoromethyl)-1,3,4-oxadiazol-2-yl)pyridin-2-yl)methyl)-3-fluoro-N-(3-fluorophenyl)-1-(1-isobutylpiperidine-4-yl)azetidine-3-carboxamide] | 26.3 µM | 911 fold | 28.8 nM |
| O=C(N(Cc1ccc(-c2nnc(C(F)F)o2)cn1)c1cccc(F)c1)C1(F)CCN(C2COC2)CC1 [Compound 2972, N-((5-(5-(difluoromethyl)-1,3,4-oxadiazol-2-yl)pyridin-2-yl)methyl)-4-fluoro-N-(3-fluorophenyl)-1-(oxetan-3-yl)piperidine-4-carboxamide] | > 50 µM | 1,190 fold | 42 nM |
| CN(C)CCCC(=O)N1CC(F)(C(=O)N(Cc2ccc(-c3nnc(C(F)F)o3)cn2)c2cccc(F)c2)C1 [Compound 3098, N-((5-(5-(difluoromethyl)-1,3,4-oxadiazol-2-yl)pyridin-2-yl)methyl)-1-(4-(dimethylamino)butanoyl)-3-fluoro-N-(3-fluorophenyl)azetidine-3-carboxamide] | > 50 µM | 1,992 fold | 25.1 nM |
| O=C(N(Cc1ccc(-c2nnc(C(F)F)o2)cn1)c1cccc(F)c1)C1(F)CN(C2CN(C3CCCC3)C2)C1 [Compound 3396, 1′-cyclopentyl-N-((5-(5-(difluoromethyl)-1,3,4-oxadiazol-2-yl)pyridin-2-yl)methyl)-3-fluoro-N-(3-fluorophenyl)-[1,3′-biazetidine]-3-carboxamide] | 31.6 µM | 1,618 fold | 19.5 nM |
| CN1CCC(F)(C(=O)N(Cc2ccc(-c3nnc(C(F)F)o3)cn2)c2cccc(F)c2)CC1 [Compound 2969, N-((5-(5-(difluoromethyl)-1,3,4-oxadiazol-2-yl)pyridin-2-yl)methyl)-4-fluoro-N-(3-fluorophenyl)-1-methylpiperidine-4-carboxamide] | > 50 µM | 1,298 fold | 38.5 nM |
| CN1CCC(F)(C(=O)N(Cc2ccc(-c3nnc(C(F)F)o3)cc2F)c2ccccc2)CC1 [Compound 2866, N-(4-(5-(difluoromethyl)-1,3,4-oxadiazol-2-yl)-2-fluorobenzyl)-4-fluoro-1-methyl-N-phenylpiperidine-4-carboxamide] | > 20 µM | 149 fold | 134 nM |
| CCN1CC(N2CC(F)(C(=O)N(Cc3ccc(-c4nnc(C(F)F)o4)cn3)c3cccc(F)c3)C2)C1 [Compound 3220, N-((5-(5-(difluoromethyl)-1,3,4-oxadiazol-2-yl)pyridin-2-yl)methyl)-1′-ethyl-3-fluoro-N-(3-fluorophenyl)-[1,3′-biazetidine]-3-carboxamide] | > 50 µM | 1,272 fold | 39.3 nM |
| O=C(C1CCCCC1)N1CC(F)(C(=O)N(Cc2ccc(-c3nnc(C(F)F)o3)cn2)c2cccc(F)c2)C1 [Compound 3170, 1-(cyclohexanecarbonyl)-N-((5-(5-(difluoromethyl)-1,3,4-oxadiazol-2-yl)pyridin-2-yl)methyl)-3-fluoro-N-(3-fluorophenyl)azetidine-3-carboxamide] | > 50 µM | 2,066 fold | 24.2 nM |

Other lines, results leading:

| IC50 (human recombinant HDAC1) | HDAC6 selectivity (fold) (human recombinant HDAC6) | IC50 (human recombinant HDAC6) | SMILES |
| --- | --- | --- | --- |
| > 50 µM | 649 fold | 77 nM | O=C(N(Cc1ccc(-c2nnc(C(F)F)o2)cn1)c1ccccc1)C1(F)CN(CC2CCCCC2)C1 [Compound 3156, 1-(cyclohexylmethyl)-N-((5-(5-(difluoromethyl)-1,3,4-oxadiazol-2-yl)pyridin-2-yl)methyl)-3-fluoro-N-phenylazetidine-3-carboxamide] |
| > 50 µM | 988 fold | 50.6 nM | CN1CC(N2CC(F)(C(=O)N(Cc3ccc(-c4nnc(C(F)F)o4)cn3)c3cccc(F)c3)C2)C1 [Compound 3219, N-((5-(5-(difluoromethyl)-1,3,4-oxadiazol-2-yl)pyridin-2-yl)methyl)-3-fluoro-N-(3-fluorophenyl)-1′-methyl-[1,3′-biazetidine]-3-carboxamide] |
| > 50 µM | 1,827 fold | 27.4 nM | CCCCN1CC(N2CC(F)(C(=O)N(Cc3ccc(-c4nnc(C(F)F)o4)cn3)c3ccccc3)C2)C1 [Compound 3108, 1′-butyl-N-((5-(5-(difluoromethyl)-1,3,4-oxadiazol-2-yl)pyridin-2-yl)methyl)-3-fluoro-N-phenyl-[1,3′-biazetidine]-3-carboxamide] |
| > 50 µM | 1,400 fold | 35.7 nM | O=C(C1CC1)N1CC(F)(C(=O)N(Cc2ccc(-c3nnc(C(F)F)o3)cn2)c2ccccc2)C1 [Compound 3158, 1-(cyclopropanecarbonyl)-N-((5-(5-(difluoromethyl)-1,3,4-oxadiazol-2-yl)pyridin-2-yl)methyl)-3-fluoro-N-phenylazetidine-3-carboxamide] |
| > 50 µM | 1,262 fold | 39.6 nM | CCN1CC(N2CC(F)(C(=O)N(Cc3ccc(-c4nnc(C(F)F)o4)cn3)c3ccccc3)C2)C1 [Compound 3106, N-((5-(5-(difluoromethyl)-1,3,4-oxadiazol-2-yl)pyridin-2-yl)methyl)-1′-ethyl-3-fluoro-N-phenyl-[1,3′-biazetidine]-3-carboxamide] |
| > 50 µM | 2,024 fold | 24.7 nM | CCCN1CCC(N2CC(F)(C(=O)N(Cc3ccc(-c4nnc(C(F)F)o4)cn3)c3ccccc3)C2)CC1 [Compound 3112, N-((5-(5-(difluoromethyl)-1,3,4-oxadiazol-2-yl)pyridin-2-yl)methyl)-3-fluoro-N-phenyl-1-(1-propylpiperidin-4-yl)azetidine-3-carboxamide] |
| > 50 µM | 1,170 fold | 42.7 nM | CN1CCC(N2CC(F)(C(=O)N(Cc3ccc(-c4nnc(C(F)F)o4)cn3)c3ccccc3)C2)CC1 [Compound 3110, N-((5-(5-(difluoromethyl)-1,3,4-oxadiazol-2-yl)pyridin-2-yl)methyl)-3-fluoro-1-(1-methylpiperidin-4-yl)-N-phenylazetidine-3-carboxamide] |
| > 50 µM | 1,347 fold | 37.1 nM | CCC(=O)N1CC(F)(C(=O)N(Cc2ccc(-c3nnc(C(F)F)o3)cn2)c2ccccc2)C1 [Compound 3153, N-((5-(5-(difluoromethyl)-1,3,4-oxadiazol-2-yl)pyridin-2-yl)methyl)-3-fluoro-N-phenyl-1-propionylazetidine-3-carboxamide] |
| > 50 µM | 2,272 fold | 22 nM | O=C(N(Cc1ccc(-c2nnc(C(F)F)o2)cn1)c1ccccc1)C1(F)CN(C2CCSCC2)C1 [Compound 3162, N-((5-(5-(difluoromethyl)-1,3,4-oxadiazol-2-yl)pyridin-2-yl)methyl)-3-fluoro-N-phenyl-1-(tetrahydro-2H-thiopyran-4-yl)azetidine-3-carboxamide] |
